Patent publication US11192900B2, “Substituted 1,6-dihydropyridinones and 1,2-dihydroisoquinolinones as bet inhibitors” (NUVATION BIO INC., priority 2018, dated 2021)
Like-named read-outs stand apart in the source and are kept apart here.

Experiments:
22Rv1 cells = assay: 22Rv1 cell proliferation assay with wash-off or mock wash-off; format: cell-based, human; settings: Homo sapiens
Experimental: A 22Rv1 cell proliferation assay was used to assess durability of test compound effects after transient exposure of test compound to cells. 22Rv1 cells were seeded at 3000 cells per well/100 μl in a 96-well plate and incubated with test compounds at specified dilutions for 2 hr at 37° C. and 5% CO2. Following the incubation, test compound was washed off and replacement culture medium without test compound was added. Wash-off was performed by three PBS washes. The cells were incubated for an additional 96 hr at 37° C. and 5% CO2. In parallel, a mock wash-off was performed with cells that were treated identically except that the replacement culture medium contained test compound. The plate was incubated for 4 hr at 37° C., 5% CO2 and fluorescence was measured using excitation and emission wavelengths of 535 and 590 nm, respectively. Cell viability data were plotted using GraphPad Prism (GraphPad Software, Inc., San Diego, Calif.). In addition, a nonlinear regression model with a sigmoidal dose response and variable slope within GraphPad Prism was used to calculate the IC50 value of individual test compounds.

[1] = tested on: 22Rv1 human prostate carcinoma cell line; assay: Cell viability assay (resazurin); format: cell-based; settings: 22Rv1, resazurin, 72 hrs
Experimental: (§1) The effects of test compounds were also studied in the 22Rv1 human prostate carcinoma and MDA-MB-231 human breast adenocarcinoma cell lines. The cells were harvested during the logarithmic growth period and counted. Cells were seeded at a count of 3000 cells (22Rv1) or 5000 cells (MDA-MB-231) per well/100 μl in a 96-well plate. After seeding, cells were incubated at 37° C., 5% CO2 for 24 hr. Cells were treated with test compounds at 8 concentrations within a desired concentration range (e.g. 5 nM-10 μM) for generation of dose response curves by preparing serial dilutions of the test compound in DMSO which were further diluted with culture medium and then added to each well. The plate was further incubated for another 72 hrs (22Rv1) or 96 hrs (MDA-MB-231) in humidified incubator at 37° C. and 5% CO2. The assay was terminated by addition of resazurin (# R7017, Sigma). The plate was incubated for 4 hr at 37° C., 5% CO2 and fluorescence was measured using excitation and emission wavelengths of 535 and 590 nm, respectively. Cell viability data were plotted using GraphPad Prism (GraphPad Software, Inc., San Diego, Calif.). In addition, a nonlinear regression model with a sigmoidal dose response and variable slope within GraphPad Prism was used to calculate the IC50 value of individual test compounds.

[2] = tested on: MDA-MB-231 human breast adenocarcinoma cell line; assay: Cell viability assay (resazurin); format: cell-based; settings: MDA-MB-231, resazurin, 96 hrs
Experimental: as §1

C=CS(=O)(=O)Nc1ccc(Oc2ccc(F)cc2F)c(-c2cc(NC)c(=O)n(C)c2)c1 [Compound 3, N-(4-(2,4-difluorophenoxy)-3-(1-methyl-5-(methylamino)-6-oxo-1,6-dihydropyridin-3-yl)phenyl)ethenesulfonamide]
IC50 (22Rv1 cells; 22Rv1, 2 hr exposure, three PBS washes, additional 96 hr without compound, read-out: Wash-off IC50): 96 nM | IC50 (22Rv1 cells; 22Rv1, 2 hr, replacement medium with test compound, additional 96 hr, read-out: Mock wash-off IC50): 342 nM | IC50 [1]: 58 nM | IC50 [2]: 82 nM
